{"source": "patent US8785488B2", "about": "(Exelixis Patent Company LLC, priority 2009, dated 2014)", "target": "T1, human TGR5 (h-TGR5) (Homo sapiens, UniProt Q8TDU6)", "T1 construct": "expressed in transfected cells", "T1 sequence (Q8TDU6 1-330)": "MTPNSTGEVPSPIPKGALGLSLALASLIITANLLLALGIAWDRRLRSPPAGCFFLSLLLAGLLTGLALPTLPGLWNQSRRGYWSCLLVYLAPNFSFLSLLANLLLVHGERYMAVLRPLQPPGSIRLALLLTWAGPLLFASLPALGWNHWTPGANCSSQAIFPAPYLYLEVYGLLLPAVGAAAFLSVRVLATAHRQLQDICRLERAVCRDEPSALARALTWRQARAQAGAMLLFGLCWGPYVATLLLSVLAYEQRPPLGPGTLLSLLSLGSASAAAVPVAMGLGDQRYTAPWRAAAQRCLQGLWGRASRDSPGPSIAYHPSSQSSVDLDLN", "assay": "TGR5/CRE-Luciferiase Assay (HEK 293 hTGR5/CRE-Luc cells)", "type": "cell-based", "details": "h-TGR5 CRE-Luc EC50, Table 1; read-out: CRE-Luc (EC50)", "procedure": "Compounds were serially diluted in DMEM containing 5% DMSO and 5 μL of compound or media alone was transferred to each well and plates were incubated for 6 hours. Following incubation, 30 μL of lysis/luciferase buffer was added to each well. The luciferase activity was then measured on the EnVision™ plate reader and the dose response data was analyzed using ActivityBase.\nIn the following tables, EC50 values determined according to the TGR5 cAMP Assay described herein (cAMP); EC50 values determined according to the TGR5/CRE-Luciferiase Assay described herein (CRE-Luc). […] The following compounds in Tables 1 and 2 were made by using procedures described in the above Schemes and Examples, and, where applicable, by making any necessary substitutions of known materials that one skilled in the art would ordinarily understand how to do.", "data": [{"smiles": "COc1c(Cl)cc(C(C)(C)c2cnc(SCc3ccc(S(N)(=O)=O)cc3Cl)n2-c2ccc(F)cc2)cc1Cl", "note": "[3-chloro-4-({[5-{1-[3,5-dichloro-4-(methyloxy)phenyl]-1-methylethyl}-1-(4-fluorophenyl)-1H-imidazol-2-yl]thio}methyl)benzenesulfonamide]", "values": [{"measurement": "EC50", "value": "< 100", "unit": "nM"}]}, {"smiles": "CN1CCN(c2ccc(CSc3ncc(C(C)(C)c4ccc(Cl)c(Cl)c4)n3-c3ccc(F)cc3)cc2Cl)CC1", "note": "[1-{2-chloro-4-[({5-[1-(3,4-dichlorophenyl)-1-methylethyl]-1-(4-fluorophenyl)-1H-imidazol-2-yl}thio)methyl]phenyl}-4-methylpiperazine]", "values": [{"measurement": "EC50", "value": "1000 to 10000", "unit": "nM"}]}, {"smiles": "CC(C)(c1ccc(Cl)c(Cl)c1)c1cnc(SCc2ccc(F)cc2C(N)=O)n1-c1ccc(F)cc1", "note": "[2-[({5-[1-(3,4-dichlorophenyl)-1-methylethyl]-1-(4-fluorophenyl)-1H-imidazol-2-yl}thio)methyl]-5-fluorobenzamide]", "values": [{"measurement": "EC50", "value": "100 to 1000", "unit": "nM"}]}, {"smiles": "CC(C)(c1ccc(Cl)c(Cl)c1)c1cnc(COc2c(F)cccc2Cl)n1-c1ccc(F)cc1", "note": "[2-{[(2-chloro-6-fluorophenyl)oxy]methyl}-5-[1-(3,4-dichlorophenyl)-1-methylethyl]-1-(4-fluorophenyl)-1H-imidazole]", "values": [{"measurement": "EC50", "value": "100 to 1000", "unit": "nM"}]}, {"smiles": "CC(C)(O)c1ccc(CSc2ncc(C(C)(C)c3ccc(Cl)c(Cl)c3)n2-c2ccc(F)cc2)c(Cl)c1", "note": "[2-{3-chloro-4-[({5-[1-(3,4-dichlorophenyl)-1-methylethyl]-1-(4-fluorophenyl)-1H-imidazol-2-yl}thio)methyl]phenyl}propan-2-ol]", "values": [{"measurement": "EC50", "value": "100 to 1000", "unit": "nM"}]}, {"smiles": "COc1ccc(C(C)(C)c2cnc(SCc3ccc(Cl)cc3Cl)n2-c2ccc(F)cc2)cc1OC", "note": "[5-{1-[3,4-bis(methyloxy)phenyl]-1-methylethyl}-2-{[(2,4-dichlorophenyl)methyl]thio}-1-(4-fluorophenyl)-1H-imidazole]", "values": [{"measurement": "EC50", "value": "< 100", "unit": "nM"}]}, {"smiles": "CC(C)(c1ccc(Cl)c(Cl)c1)c1cnc(SCc2ccc(F)cc2S(N)(=O)=O)n1-c1ccc(F)cc1", "note": "[2-[({5-[1-(3,4-dichlorophenyl)-1-methylethyl]-1-(4-fluorophenyl)-1H-imidazol-2-yl}thio)methyl]-5-fluorobenzenesulfonamide]", "values": [{"measurement": "EC50", "value": "100 to 1000", "unit": "nM"}]}, {"smiles": "CC(C)(Oc1cc(F)ccc1CSc1ncc(C(C)(C)c2ccc(Cl)c(Cl)c2)n1-c1ccc(F)cc1)C(=O)O", "note": "[2-({2-[({5-[1-(3,4-dichlorophenyl)-1-methylethyl]-1-(4-fluorophenyl)-1H-imidazol-2-yl}thio)methyl]-5-fluorophenyl}oxy)-2-methylpropanoic acid]", "values": [{"measurement": "EC50", "value": "1000 to 10000", "unit": "nM"}]}, {"smiles": "CC(C)(c1ccc(Cl)c(S(N)(=O)=O)c1)c1cnc(SCc2c(F)cc(C(=O)O)cc2F)n1-c1ccc(F)cc1", "note": "[4-({[5-{1-[3-(aminosulfonyl)-4-chlorophenyl]-1-methylethyl}-1-(4-fluorophenyl)-1H-imidazol-2-yl]thio}methyl)-3,5-difluorobenzoic acid]", "values": [{"measurement": "EC50", "value": "1000 to 10000", "unit": "nM"}]}, {"smiles": "CC(C)NC(=O)N1CCC(CSc2ncc(C(C)(C)c3ccc(F)c(F)c3)n2-c2ccc(F)cc2)CC1", "note": "[4-[({5-[1-(3,4-difluorophenyl)-1-methylethyl]-1-(4-fIuorophenyl)-1H-imidazol-2-yl}thio)methyl]-N-(1-methylethyl)piperidine-1-carboxamide]", "values": [{"measurement": "EC50", "value": "100 to 1000", "unit": "nM"}]}, {"smiles": "CC(C)(c1ccc(Cl)c(Cl)c1)c1cnc(SCc2cc(S(N)(=O)=O)ccc2Cl)n1-c1ccc(F)cc1", "note": "[4-chloro-3-[({5-[1-(3,4-dichlorophenyl)-1-methylethyl]-1-(4-fluorophenyl)-1H-imidazol-2-yl}thio)methyl]benzenesulfonamide]", "values": [{"measurement": "EC50", "value": "100 to 1000", "unit": "nM"}]}, {"smiles": "CC(C)(Oc1ccc(C(C)(C)c2cnc(SCc3ccc(F)cc3Cl)n2-c2ccc(F)cc2)cc1Cl)C(=O)O", "note": "[2-[(2-chloro-4-{1-[2-{[(2-chloro-4-fluorophenyl)methyl]thio}-1-(4-fluorophenyl)-1H-imidazol-5-yl]-1-methylethyl}phenyl)oxy]-2-methylpropanoic acid]", "values": [{"measurement": "EC50", "value": "100 to 1000", "unit": "nM"}]}, {"smiles": "CC(C)(c1ccc(Cl)c(Cl)c1)c1cnc(SCc2ccc(F)cc2OCC(=O)O)n1-c1ccc(F)cc1", "note": "[({2-[({5-[1-(3,4-dichlorophenyl)-1-methylethyl]-1-(4-fluorophenyl)-1H-imidazol-2-yl}thio)methyl]-5-fluorophenyl}oxy)acetic acid]", "values": [{"measurement": "EC50", "value": "100 to 1000", "unit": "nM"}]}, {"smiles": "CC(C)(c1ccc(Cl)c(Cl)c1)c1cnc(SCc2ccc(F)c(C(=O)NCC(F)(F)F)c2)n1-c1ccc(F)cc1", "note": "[5-[({5-[1-(3,4-dichlorophenyl)-1-methylethyl]-1-(4-fluorophenyl)-1H-imidazol-2-yl}thio)methyl]-2-fluoro-N-(2,2,2-trifluoroethyl)benzamide]", "values": [{"measurement": "EC50", "value": "100 to 1000", "unit": "nM"}]}, {"smiles": "CC(C)(c1ccc(Cl)c(Cl)c1)c1cnc(SCc2c(F)cccc2Cl)n1-c1ccc(F)cc1C(F)(F)F", "note": "[2-{[(2-chloro-6-fluorophenyl)methyl]thio}-5-[1-(3,4-dichlorophenyl)-1-methylethyl]-1-[4-fluoro-2-(trifluoromethyl)phenyl]-1H-imidazole]", "values": [{"measurement": "EC50", "value": "1000 to 10000", "unit": "nM"}]}, {"smiles": "CC(C)(c1ccc(Cl)c(Cl)c1)c1cnc(CS(=O)(=O)c2ccc(F)cc2Cl)n1-c1ccc(F)cc1", "note": "[2-{[(2-chloro-4-fluorophenyl)sulfonyl]methyl}-5-[1-(3,4-dichlorophenyl)-1-methylethyl]-1-(4-fluorophenyl)-1H-imidazole]", "values": [{"measurement": "EC50", "value": "1000 to 10000", "unit": "nM"}]}, {"smiles": "COc1ccc(C(C)(C)c2cnc(SCc3ccc(Cl)c(Cl)c3)n2-c2ccc(F)cc2)cc1OC", "note": "[5-{1-[3,4-bis(methyloxy)phenyl]-1-methylethyl}-2-{[(3,4-dichlorophenyl)methyl]thio}-1-(4-fluorophenyl)-1H-imidazole]", "values": [{"measurement": "EC50", "value": "< 100", "unit": "nM"}]}, {"smiles": "CC(C)(c1ccc(Cl)c(Cl)c1)c1c(Cl)nc(SCc2c(F)cccc2Cl)n1-c1ccc(F)cc1", "note": "[4-chloro-2-{[(2-chloro-6-fluorophenyl)methyl]thio}-5-[1-(3,4-dichlorophenyl)-1-methylethyl]-1-(4-fluorophenyl)-1H-imidazole]", "values": [{"measurement": "EC50", "value": "100 to 1000", "unit": "nM"}]}, {"smiles": "CC(C)(c1ccc(Cl)c(Cl)c1)c1cnc(CCc2ccc(S(=O)(=O)NC(=O)NN3CCCC3)cc2Cl)n1-c1ccc(F)cc1", "note": "[3-chloro-4-(2-{5-[1-(3,4-dichlorophenyl)-1-methylethyl]-1-(4-fluorophenyl)-1H-imidazol-2-yl}ethyl)-N-[(pyrrolidin-1-ylamino)carbonyl]benzenesulfonamide]", "values": [{"measurement": "EC50", "value": "1000 to 10000", "unit": "nM"}]}, {"smiles": "CC(C)(c1ccc2c(c1)OCO2)c1cnc(SCc2ccc(F)cc2Cl)n1-c1ccc(F)cc1", "note": "[5-[1-(1,3-benzodioxol-5-yl)-1-methylethyl]-2-{[(2-chloro-4-fluorophenyl)methyl]thio}-1-(4-fluorophenyl)-1H-imidazole]", "values": [{"measurement": "EC50", "value": "100 to 1000", "unit": "nM"}]}, {"smiles": "CC(C)(c1ccc(F)c(F)c1)c1cnc(SCC2CCN(CC(O)CO)CC2)n1-c1ccc(F)cc1", "note": "(stereo not shown) [3-{4-[({5-[1-(3,4-difluorophenyl)-1-methylethyl]-1-(4-fluorophenyl)-1H-imidazol-2-yl}thio)methyl]piperidin-1-yl}propane-1,2-diol]", "values": [{"measurement": "EC50", "value": "1000 to 10000", "unit": "nM"}]}, {"smiles": "CC(C)(c1ccc(Cl)c(Cl)c1)c1cnc(SCc2ccc(C(=N)N)c(Cl)c2)n1-c1ccc(F)cc1", "note": "[2-chloro-4-[({5-[1-(3,4-dichlorophenyl)-1-methylethyl]-1-(4-fluorophenyl)-1H-imidazol-2-yl}thio)methyl]benzenecarboximidamide]", "values": [{"measurement": "EC50", "value": "1000 to 10000", "unit": "nM"}]}, {"smiles": "COc1ccc(C(C)(C)c2cnc(C(=O)N3CCCC3)n2-c2ccc(F)cc2)cc1OC", "note": "[5-{1-[3,4-bis(methyloxy)phenyl]-1-methylethyl}-1-(4-fluorophenyl)-2-(pyrrolidin-1-ylcarbonyl)-1H-imidazole]", "values": [{"measurement": "EC50", "value": "1000 to 10000", "unit": "nM"}]}, {"smiles": "CC(C)(Oc1cc(CSc2ncc(C(C)(C)c3ccc(Cl)c(Cl)c3)n2-c2ccc(F)cc2)ccc1F)C(=O)O", "note": "[2-({5-[({5-[1-(3,4-dichlorophenyl)-1-methylethyl]-1-(4-fluorophenyl)-1H-imidazol-2-yl}thio)methyl]-2-fluorophenyl}oxy)-2-methylpropanoic acid]", "values": [{"measurement": "EC50", "value": "100 to 1000", "unit": "nM"}]}, {"smiles": "CCN(CC)CCOc1cc(-n2c(C(C)(C)c3ccc(Cl)c(Cl)c3)cnc2SCc2c(F)cc(C(=O)O)cc2Cl)ccc1F", "note": "[3-chloro-4-[({5-[1-(3,4-dichlorophenyl)-1-methylethyl]-1-(3-{[2-(diethylamino)ethyl]oxy}-4-fluorophenyl)-1H-imidazol-2-yl}thio)methyl]-5-fluorobenzoic acid]", "values": [{"measurement": "EC50", "value": "100 to 1000", "unit": "nM"}]}, {"smiles": "CC(C)(c1ccc(Cl)c(Cl)c1)c1cnc(SCc2ccc(C(N)=O)c(F)c2)n1-c1ccc(F)cc1", "note": "[4-[({5-[1-(3,4-dichlorophenyl)-1-methylethyl]-1-(4-fluorophenyl)-1H-imidazol-2-yl}thio)methyl]-2-fluorobenzamide]", "values": [{"measurement": "EC50", "value": "100 to 1000", "unit": "nM"}]}, {"smiles": "CC(C)(c1ccc(Cl)c(Cl)c1)c1cnc(SCc2ccc(C(N)=O)cc2Cl)n1-c1ccc(F)cc1", "note": "[3-chloro-4-[({5-[1-(3,4-dichlorophenyl)-1-methylethyl]-1-(4-fluorophenyl)-1H-imidazol-2-yl}thio)methyl]benzamide]", "values": [{"measurement": "EC50", "value": "100 to 1000", "unit": "nM"}]}, {"smiles": "CC(C)(c1ccc(Cl)c(Cl)c1)c1cnc(S(=O)(=O)Cc2cc(Cl)ccc2Cl)n1-c1ccc(F)cc1", "note": "[5-[1-(3,4-dichlorophenyl)-1-methylethyl]-2-{[(2,5-dichlorophenyl)methyl]sulfonyl}-1-(4-fluorophenyl)-1H-imidazole]", "values": [{"measurement": "EC50", "value": "100 to 1000", "unit": "nM"}]}]}
